Among the data in ChEMBL document CHEMBL1126421, “Total synthesis of myo-inositol-1-phosphate-4,5-pyrophosphate, a novel second messenger analogue, via myo-inositol-1-phosphate-4,5-bisphosphorothioate” (Bioorg Med Chem Lett, 1992) are Ki values, retold here.

The target of this test is T1, Inositol polyphosphate-5-phosphatase A (Homo sapiens, UniProt Q14642).
T1 sequence (Q14642 whole entry): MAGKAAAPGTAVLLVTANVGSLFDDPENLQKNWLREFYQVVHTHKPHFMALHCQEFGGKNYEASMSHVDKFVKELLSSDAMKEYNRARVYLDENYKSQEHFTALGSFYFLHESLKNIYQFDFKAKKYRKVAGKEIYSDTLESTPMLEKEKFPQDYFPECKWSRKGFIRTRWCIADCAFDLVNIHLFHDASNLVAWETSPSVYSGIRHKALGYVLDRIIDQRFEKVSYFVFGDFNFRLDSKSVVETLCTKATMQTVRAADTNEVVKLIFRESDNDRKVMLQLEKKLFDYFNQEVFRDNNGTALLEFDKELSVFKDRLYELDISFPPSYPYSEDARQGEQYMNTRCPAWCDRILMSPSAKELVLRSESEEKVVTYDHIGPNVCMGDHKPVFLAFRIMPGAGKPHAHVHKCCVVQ
The test is described as follows: The compound was evaluated for inhibition of Inositol-1,4,5-trisphosphate 5-phosphatase.

Turning to `O=P(O)(O)OC1C(O)C(O)C(OP(O)(O)=S)C(OP(O)(O)=S)C1O` (stereo unspecified), the affinity, expressed as Ki, was 1300 nM.
